Experimental data from BigSolDB 2.1.

C[C@@H]1O[C@@H](O[C@H]2[C@H](Oc3cc(O)c4c(c3)O[C@H](c3ccc(O)cc3)CC4=O)O[C@H](CO)[C@@H](O)[C@@H]2O)[C@H](O)[C@H](O)[C@H]1O
solubility (mole fraction)
Conditions	283.15 K	288.15 K	293.15 K	298.15 K	303.15 K	308.15 K	313.15 K	318.15 K
in ethanol	2.26e-05	2.57e-05	3.45e-05	4.05e-05	5.17e-05	6.25e-05	7.96e-05	0.000102
in water	6.21e-07	7.14e-07	9.76e-07	2.87e-06	6.15e-06	1.1e-05	1.55e-05	2.32e-05
